Where a SMILES comes first, the peptide text is derived from it.
Legend:
[1] = test system: parakeratosis and skin roughness caused by oleic acid on the back of hairless mice; experiment: Parakeratosis inhibition effect test: oleic acid applied to the back of hairless mice, visual skin roughness and parakeratosis level; assay type: in vivo, hairless mice (HR-1); design: key to Evaluation Visual (mean of 4 mice), skin roughness: 0.0 = no roughness, 2.0 = control application; 0.25 steps; conditions: for Evaluation Parakeratosis (mean of 4 mice): range 1.0 to 3.0, higher = severer, control 2.0; for Evaluation Visual (mean of 4 mice), skin roughness: score 0.0 no roughness, 2.0 control; for effect of inhibiting parakeratosis (conclusion from Table 4) / effect of inhibiting parakeratosis (conclusion from Table 1): hairless mice, oleic acid; for effect of inhibiting parakeratosis (conclusion from Table 4): fourth embodiment; for effect of inhibiting parakeratosis (conclusion from Table 1): first embodiment
Protocol: A 3 weight % water solution (including 30 weight % ethanol) was prepared as the evaluation specimen of the glycine derivatives in accordance with the invention 1. The pH was regulated to the range between 7.0 to 7.5, by using hydrochloric acid and sodium hydroxide. When the solubility was low, the solution was adjusted accordingly.
100 microliters of 10 weight % oleic acid (solvent: ethanol) was applied to the back of hairless mice (HR-1, Hoshino laboratory animals). Thereafter, 100 microliters of sample solution was applied (glycine derivatives in accordance with said invention 1) at each time. This procedure was repeated for 3 days. The day after the application, the skin condition of the backs was observed by using a CCD camera to evaluate the skin roughness (stratified ablation of the skin surface stratum corneum and red spots). The skin condition was evaluated visually, with scoring the skin condition of control application to 2.0 and the skin condition of no roughness to 0.0, in a 0.25 point step in response to the skin condition. At the same time, the skin surface stratum corneum of the back of hairless mice was peeled off by using a tape for staining the nucleus with haematoxylin to observe the degrees of parakeratosis (parakeratosis level) and evaluate in 0.25 step in the range from 1.0 to 3.0. The higher evaluation points indicates the larger number of parakeratotic corneocytes count, i.e., severer parakeratosis.
The samples to be evaluated of the glycine derivatives and the salts thereof as well as the aminosulfuric acid derivatives and the salts thereof in accordance with the invention 2 were prepared mainly 3 weight % solution (including 30 weight % ethanol, excluding Hydantoic acid and ACES which include 20 weight % ethanol). pH was regulated by using hydrochloric acid or sodium hydroxide to be 7.0 to 7.5. When the solubility was low, then the solution was prepared accordingly.
100 microliters of 10 weight % oleic acid (solvent: ethanol) was applied to the back of Hairless mice (HR-1, Hoshino laboratory animals) Thereafter, 100 microliters of sample solution (glycine derivatives in accordance with the invention 2) was applied thereon at each time. This procedure was repeated for 3 days. The day after the application, the skin condition of the backs was observed by using a CCD camera to evaluate the skin roughness (stratified ablation of the skin surface stratum corneum and red spots). The skin condition was evaluated visually, with scoring the skin condition of control application to 2.0 and the skin condition of no roughness to 0.0, in a 0.25 point step in response to the skin condition. At the same time, the skin surface stratum corneum of the back of hairless mice was peeled off by using a tape for staining the nucleus with haematoxylin to observe the degrees of parakeratosis and evaluate in 0.25 step in the range from 1.0 to 3.0. The higher evaluation points indicates the larger number of parakeratotic corneocytes count, i.e., severer parakeratosis.

[2] = test system: skin roughness caused by oleic acid on the back of hairless mice; experiment: Inhibitory effect on skin roughness by the application of oleic acid (TEWL value); assay type: in vivo, hairless mice (HR-1); design: ΔTEWL: unit not given here; conditions: for ΔTEWL: after 10 weight % oleic acid, 3 days, four mice per group, control 12.0; for decrease of delta-TEWL value as compared to the control solution (conclusion from Table 6): hairless mice, oleic acid, seventh embodiment
Protocol: To study the inhibitory effect on the skin roughness by the application of oleic acid by the glycine derivatives and the salts thereof as well as the aminosulfuric acid derivatives and the salts thereof in accordance with the invention 2, the […] (TEWL value) before and after the application was measured to compare the difference therebetween with the value of control (control solution) in order to determine the effect. The preparation of samples and the application procedure were in accordance with the embodiment 4. The TEWL value was measured by means of TEWA meter TM210 (Courage+Khazaka Inc.).
100 microliters of 10 weight % oleic acid (solvent: ethanol) was applied to the back of hairless mice (HR-1, four in each group). Thereafter, 100 microliters of sample solutions (glycine derivatives and the salts thereof as well as the aminosulfuric acid derivatives and the salts thereof) in accordance with the invention 2 were applied at each time. This procedure was repeated for 3 days. The day after the application, TEWL value of the back of mice was measured and the values were averaged. The larger delta-TEWL value indicates severer aggravation of skin roughness.

[3] = Table 4, sample 3 weight % in aqueous 30 weight % ethanol (hydantoic acid: 20 weight % ethanol)
[4] = sample 3 weight %, larger = severer roughness
[5] = sample 3 weight % in aqueous 30 weight % ethanol, after 10 weight % oleic acid, 3 days
[6] = sample 1 weight % in aqueous 30 weight % ethanol, after 10 weight % oleic acid, 3 days

| Structure (SMILES) | Evaluation Parakeratosis (mean of 4 mice) [1, 3] | Evaluation Visual (mean of 4 mice), skin roughness [1, 3] | ΔTEWL [2, 4] | effect of inhibiting parakeratosis (conclusion from Table 1) [1] | Evaluation Parakeratosis (mean of 4 mice) [1, 5] | Evaluation Visual (mean of 4 mice), skin roughness [1, 5] | further results |
| --- | --- | --- | --- | --- | --- | --- | --- |
| O=S(=O)(O)CCCCNC1CCCCC1 [CABS, 4-(cyclohexylamino)-1-butane sulfonic acid, reference compound] | 2.0 | 1.9 | 11.9 |  |  |  | effect of inhibiting parakeratosis (conclusion from Table 4) [1]: effect was not recognized |
| O=S(=O)(O)CCNC1CCCCC1 [CHES, 2-(N-cyclohexylamino)ethane sulfonic acid, reference compound] | 1.9 | 1.8 | 12.3 |  |  |  | effect of inhibiting parakeratosis (conclusion from Table 4) [1]: effect was not recognized |
| O=S(=O)(O)CCCN1CCOCC1 [MOPS, 3-(N-morpholino)propane sulfonic acid, reference compound] | 2.1 | 1.9 | 13.2 |  |  |  | effect of inhibiting parakeratosis (conclusion from Table 4) [1]: effect was not recognized |
| CN(C)CC(=O)O [N,N-dimethylglycine, reference compound] | 2.3 | 2.1 | 15.5 |  |  |  |  |
| CC(=O)N[C@@H](CC(=O)O)C(=O)O [N-acetyl-L-aspartic acid] |  |  |  | have the effect of inhibiting parakeratosis | 1.5 | 1.4 |  |
| CC(=O)NCC(=O)O [N-acetylglycine, reference compound] | 2.0 | 1.9 | 14.7 |  |  |  |  |
| O=C(O)CC[C@H](NS(=O)(=O)c1ccccc1)C(=O)O [N-benzenesulfonyl-L-glutamic acid, N-benzene-sulfonyl-L-glutamic acid] |  |  |  | have the effect of inhibiting parakeratosis | 1.6 | 1.6 |  |
| O=C(O)CC[C@H](NC(=O)c1ccccc1)C(=O)O [N-benzoyl-L-glutamic acid] |  |  |  | have the effect of inhibiting parakeratosis | 1.6 | 1.7 |  |
| O=S(=O)(O)CCCNC(CO)(CO)CO [TAPS, N-tris(hydroxymethyl)methyl-3-aminopropane sulfonic acid, reference compound] | 2.1 | 2.0 | 12.0 |  |  |  | effect of inhibiting parakeratosis (conclusion from Table 4) [1]: effect was not recognized |
| CCOC(=O)CCN.Cl [beta-alanine ethyl ester HCL, beta-alanine ethyl-ester hydrochloride] |  |  |  | have the effect of inhibiting parakeratosis | 1.2 | 1.0 |  |
| C[N+](C)(C)CC(=O)O [betaine, reference compound] | 1.8 | 1.8 | 10.6 |  |  |  |  |
| O=C(O)CN(CCO)CCO [bicine, reference compound] | 2.0 | 1.9 | 12.0 |  |  |  |  |
| CCOC(=O)CN1CCCCC1 [ethyl-1-piperidine acetate, reference compound] | 1.9 | 1.8 | 10.7 |  |  |  |  |
| NCC(N)=O [glycine amide, reference compound] |  |  |  |  | 2.1 | 1.9 |  |
| Cl.NCC(=O)OCc1ccccc1 [glycine benzyl ester HCL, glycine benzyl ester hydrochloride] |  |  |  | have the effect of inhibiting parakeratosis | 1.2 | 1.3 |  |
| CCOC(=O)CN.Cl [glycine ethyl ester HCL, glycine ethyl ester hydrochloride] |  |  |  | have the effect of inhibiting parakeratosis | 1.1 | 1.2 |  |
| CCCCOC(=O)CN.Cl [glycine n-butyl ester HCL, glycine n-butyl ester hydrochloride] |  |  |  | have the effect of inhibiting parakeratosis | 1.5 | 1.6 |  |
| CCCOC(=O)CN.Cl [glycine n-propyl ester HCL, glycine n-propyl ester hydrochloride] |  |  |  | have the effect of inhibiting parakeratosis | 1.4 | 1.4 |  |
| CC(C)(C)OC(=O)CN.Cl [glycine t-butyl ester HCL, glycine t-butyl ester hydrochloride] |  |  |  | have the effect of inhibiting parakeratosis | 1.5 | 1.6 |  |
| Cl.NCC(N)=O [glycine-amide HCL, glycine-amide hydrochloride, reference compound] | 2.0 | 1.9 | 12.4 |  |  |  | effect of inhibiting parakeratosis (conclusion from Table 4) [1]: did not exhibit such effect |
| NCC(=O)NCC(=O)NCC(=O)O [glycyl-glycylglycine, reference compound] (H-Gly-Gly-Gly-OH) |  |  |  |  |  |  | Evaluation Parakeratosis (mean of 4 mice) [1, 6]: 2.0; Evaluation Visual (mean of 4 mice), skin roughness [1, 6]: 1.9 |
| CCOC(=O)CNC(=O)CN.Cl [glycylglycine ethyl ester HCL, glycylglycine ethyl ester hydrochloride salt] | 1.1 | 1.3 | 6.7 |  |  |  | effect of inhibiting parakeratosis (conclusion from Table 4) [1]: have the effect of inhibiting parakeratosis; decrease of delta-TEWL value as compared to the control solution (conclusion from Table 6) [2]: significant decrease of delta-TEWL value |
| N=C(N)N1CCC(C(=O)O)CC1 [guanidinoisonipecotinic acid, reference compound] |  |  |  |  | 2.2 | 2.0 |  |
| O=C(O)C1CCNCC1 [isonipecotinic acid, isonipecotic acid] |  |  |  | have the effect of inhibiting parakeratosis | 1.5 | 1.6 |  |
| O=C(O)CNC(=O)c1cccnc1 [nicotinoylglycine, N-nicotinoylglycine] |  |  |  |  |  |  | decrease of delta-TEWL value as compared to the control solution (conclusion from Table 6) [2]: significant decrease of delta-TEWL value; ΔTEWL ([2]; sample 0.1 weight %): 7.4 |

Reference: patent publication US8586638B2, “Parakeratosis inhibitor and skin preparation for external use” (priority 2003, dated 2013)
